From patent US20090239884A1, “Methods of Treating Inflammation” (priority 2006, published 2009)

Legend:
[1] = tested on: unstimulated mouse splenocytes; test: transwell chemotaxis assay in response to CXCL12, unstimulated splenocytes; format: cell-based; settings: Mus musculus, Splenocyte, 4 h; read-out: inhibition of CXCL12-induced migration
Description: (§1) Isolation of murine splenocytes. Splenocytes were isolated from 6-8 week old C57BL/6 mice obtained from Jackson Laboratories (Bar Harbor, Me.). Spleens were removed and a single-cell suspension prepared using 40 μm cell strainers (Fisher Scientific). Cells were washed with RPMI 1640 medium supplemented with 5% fetal bovine serum, 2 mM L-glutamine, 100 U/ml penicillin and […] (all from GIBCO). Red blood cells were lysed using standard lysis buffer (0.15M NH4Cl, 10mM KHCO3, 0.1 mM EDTA PH 7.4). Cells were then washed and used in chemotaxis assays either as unstimulated cells or after stimulation with Con A ([…]) as indicated.
(§2) Preparation of Test Reagents. […] This concentration of DMSO had no effect on migration of splenocytes in the presence or absence of CXCL12. CXCL12 was prepared as a 100 μg/ml stock solution in PBS+0.1% BSA, Con A was prepared as a stock of 2.5 mg/ml in PBS, and dibutyryl cAMP and Rp-cAMPS were prepared as 50 mM stock solutions in water, and these reagents were diluted directly into the chemotaxis assays.
(§3) Chemotaxis Assay. Chemotaxis assays were done in 24-well transwell plates with a pore size of 5 μm (Costar, Corning). Splenocytes were placed in medium at a concentration of 3×10^6 cells/ml. Where test agents were used, splenocytes were pretreated with the agent or vehicle for 45 to 60 min, following which 100 μl of the splenocyte suspension was placed into the upper chamber of transwell plates, and the lower chamber was filled with 600 μl of medium. When added to induce migration, CXCL12 (250 ng/ml) was added to the lower chamber only. Other test reagents were added as indicated to both the upper and lower chambers. After 4 hours of incubation at 37° C. in 5% CO2, transwell inserts were gently removed and the number of cells that migrated into the lower chamber were counted by withdrawing 500 μl of lower chamber medium, mixing it with 10 ml of buffer and counting the cells on a Coulter Counter (Beckman Coulter Z series). Where results are expressed as % of CXCL12-stimulated migration, this was calculated as follows: (cells migrated in presence of CXCL12 and test reagent—cells migrated in medium alone)/(cells migrated in presence of CXCL12-cells migrated in medium alone)×100. Experimental points for all chemotaxis assays were performed in triplicate.
(§4) Splenocytes isolated from mice were assayed for migration in response to CXCL12 (250 ng/ml), either directly (unstimulated) or following 48 hr of incubation with 3 μg/ml Con A (stimulated), as described in Methods. To test for effects of dibutyryl cAMP, cells were pretreated with dibutyryl cAMP (500 μM) for 45-60 min prior to beginning the chemotaxis assay, and the assays were conducted with dibutyryl cAMP (db-cAMP) present (500 μM) in both the upper and lower chambers of the transwell plates. Data plotted are derived from a single experiment performed in triplicate. *p<0.001; **p<0.02.

[2] = tested on: Con A-stimulated mouse splenocytes; test: transwell chemotaxis assay in response to CXCL12, Con A-stimulated splenocytes; format: cell-based; settings: Mus musculus, Splenocyte, 4 h; read-out: inhibition of CXCL12-induced migration
Description: as §1, §2, §3, §4

CD4+CD25− T cells = test: qRT-PCR of PDE and cytokine genes in anti-CD3 activated CD4+CD25− T cells; format: cell-based, mouse; settings: for changes in PDE gene expression: 20 minutes; for changes in PDE gene expression / increase of PDE4B gene expression: IBMX 300 μM; for PDE3B, 7A, and 8A expression: after DP and IBMX treatment
Description: Cell Culture. Mouse splenocytes were prepared and cultured as described. (Dong H, Osmanova V, Epstein P M, Brocke S. Phosphodiesterase 8 (PDE8) regulates chemotaxis of activated lymphocytes. Biochem Biophys Res Commun. 2006; 345:713-719) […] were separated from CD4^+CD25^+ Treg cells using a CD4^+CD25^+ Regulatory T Cell Isolation Kit (Miltenyi Biotec, Auburn, Calif.) and activated for 18 hours on plate-bound anti-CD3 mAb (5 μg/ml). Cells of the murine brain endothelium-derived cell line bEnd.3 (ATCC, Manassas, Va.) were seeded into 24-well plates (Costar, Cambridge, Mass.) in DMEM supplemented with 100 U/ml penicillin, […] streptomycin, 2 mM LGlutamine, and 10% fetal bovine serum (all Gibco, Carlsbad, Calif.). bEnd.3 assays were performed on confluent bEnd.3 monolayers.
Quantitative real-time RT-PCR analysis. 10 ng cDNA, or 2 μl cDNA for LCM studies, was amplified by qRT-PCR in a 25 μl reaction using SYBR Green PCR Master Mix (Applied Biosystems, Foster City, Calif.). Primers were designed using Primer Express software v3.0 and primer efficiency verified by slope analysis to be 100%±2.5%. qRT-PCR was performed using an ABI 7500 fast system and data analyzed using the Δ^ct method (SDS software v3.0). Amplicon sizes were approximately 100 bp.
Cell treatment. Confluent bEnd.3 monolayers were incubated with 200 ng/ml TNF-α (Peprotech, Rocky Hill, N.J.) at 37° c. for 2 hours. […] The selective PDE3 and PDE4 inhibitors motapizone and piclamilast were supplied by Drs. Christoff Zitt and Armin Hatzelmann (Altana Pharma, Konstanz, Germany). Con A-activated splenocytes or CD4^+CD25^− T cells activated with plate-bound anti-CD3 mAb were treated with the same reagents for 20, 45, or 90 minutes.
In FIGS. 21A-21B, purified CD4^+CD25^− T cells were activated with plate-bound anti-CD3 mAb for 18 hours followed by incubation with IBMX (300 μM), DP (100 μM) or vehicle (0.1% DMSO) for (A) 20 or (B) 90 minutes. PDE (A, Bi) and cytokine (Bii) gene expression was then analyzed by qRT-PCR with the data presented as the mean+SEM of triplicate determinations. The results are representative of 2 independent experiments (*p<0.05, **p<0.001; one way ANOVA followed by Bonferroni t-test).

[3] = target: Y748F mutant of PDE8A catalytic domain (Homo sapiens, UniProt O60658, Y748F); settings: cited from earlier work
PDE8A [4] = settings: expressed forms of PDE8A; read-out: reported IC50s, PDE8A; cited from earlier work
PDE8 = settings: read-out: Potency (IC50) PDE8; cited from earlier work
[5] = tested on: peripheral blood mononuclear cells; settings: cited from earlier work
PDE8A [6] = tested on: T1, PDE8A; settings: expressed forms of full length cDNAs for PDE8; cited from earlier work
T1 construct: other: expressed forms of full length cDNAs for PDE8

Y748F mutant of PDE8A catalytic domain, sequence (O60658 480-820 Y748F limits assumed): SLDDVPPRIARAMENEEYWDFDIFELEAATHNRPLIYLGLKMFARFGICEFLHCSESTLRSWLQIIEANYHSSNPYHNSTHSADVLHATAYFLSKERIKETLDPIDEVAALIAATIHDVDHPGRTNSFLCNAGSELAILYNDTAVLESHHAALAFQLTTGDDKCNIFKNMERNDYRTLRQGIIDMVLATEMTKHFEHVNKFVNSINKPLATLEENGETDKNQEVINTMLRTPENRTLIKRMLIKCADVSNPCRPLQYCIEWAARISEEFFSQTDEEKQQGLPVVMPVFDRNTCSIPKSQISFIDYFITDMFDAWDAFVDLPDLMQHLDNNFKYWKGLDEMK

Compound | inhibition at 100 µM [1] [%] | inhibition at 100 µM [2] [%] | changes in PDE gene expression (CD4+CD25− T cells; DP 100 μM) | decrease of IL-2 gene expression (CD4+CD25− T cells; 90 minutes, DP 100 μM) [fold] | decrease of TNF-α gene expression (CD4+CD25− T cells; 90 minutes, DP 100 μM) [fold] | increase of PDE4B gene expression (CD4+CD25− T cells; 90 minutes, DP 100 μM) [fold] | PDE3B, 7A, and 8A expression (CD4+CD25− T cells) | IC50 [3] [µM] | IC50 (PDE8A [4]) [µM] | IC50 (PDE8) [µM] | lipopolysaccharide-stimulated release of TNF-α [5] | inhibition at 300 µM [1] [%] | inhibition at 300 µM [2] [%] | sensitivity of Tyr748-to-phenylalanine mutant to inhibition [3] | inhibition of expressed forms of PDE8 (PDE8A [6])
OCCN(CCO)c1nc(N2CCCCC2)c2nc(N(CCO)CCO)nc(N3CCCCC3)c2n1 [Dipyridamole, 2,2′,2″,2′″-(4,8-di(piperidin-1-yl)pyrimido[5,4-d]pyrimidine-2,6-diyl)bis(azanetriyl)tetraethanol] | 55 | 54 | No significant changes | 2 | 3 | 8 | unchanged | ~4.1 | 4 to 9 | 4 to 9 | inhibit | – | – | – | –
CC(C)Cn1c(=O)n(C)c(=O)c2[nH]cnc21 [IBMX, 3-isobutyl-1-methylxanthine] | – | – | No significant changes | – | – | 5 | unchanged | – | – | – | – | 57 | 21 | restores sensitivity | resistant
